Measurements reported in patent US20120225889A1, “USE OF MACROCYCLIC LACTONE DERIVATIVES FOR THE TREATMENT OF INFLAMMATORY DISORDERS” (PIRAMAL LIFE SCIENCES LIMITED, priority 2010, published 2012).

Key:
TNF-α = experiment: hPBMC membrane-monocyte contact bioassay: TNF-α; type: cell-based, human; settings: activated hPBMC membranes, 24 h
Description: The assay was designed as in reference, Immunology Letters, 117, 114-118, (2008), the disclosure of which is incorporated by reference for the teaching of the assay. Activated T cell contact-mediated monocyte activation, leading to the production of proinflammatory cytokines (e.g., TNF-α, IL-6), contributes to the pathogenesis of chronic inflammatory diseases including rheumatoid arthritis.
6-well plates (Nunc, USA) were coated with Goat anti-Mouse IgG, Fc (Chemicon, USA) at a concentration of 16.5 μL/mL in coating buffer ([…] NaHCO3, 3.56 g Na2CO3, pH 9.5).
The plates were incubated overnight at 4° C. under sterile conditions. […]
Following incubation, hPBMCs in separate wells of the 6-well plate were harvested, pooled together, and centrifuged. […] The pellet of hPBMC membranes was resuspended in lysis buffer (Sigma, USA) and the protein concentration was determined by the method of Bradford (Sigma, USA).
100 μL monocytes per well at 5×10^5 cells/mL were added to the 96-well plate (Nunc, USA) and cultured for 48 h at 37° C. […] Supernatants were collected after 24 h and TNF-α and IL-6 production was measured using OptiEIA ELISA sets, (BD BioSciences, USA). […]

[1] = system: DBA/1J mice with collagen induced arthritis; experiment: Collagen-induced arthritis in mice; type: in vivo
Description: The experiment was designed as in reference, J. Experimental Medicine, 162, 637-646 (1985), the disclosure of which is incorporated by reference for the teaching of the experiment.
Male DBA/1J mice with body weight range of 18-22 g, aged 8-10 weeks were immunized with an emulsion equivalent to 200 μg of type II collagen (Elastin products, USA) in Freund's Complete Adjuvant (Sigma, USA), injected intradermally at the base of the tail. The animals were boosted with 200 μg of freshly prepared typeII collagen emulsion emulsified in Freund's Complete Adjuant (Sigma, USA) on day 21. A group of naïve mice was also maintained alongside. Naïve animals are the animals which are neither immunized for induction of arthritis nor do they receive any treatment. This group is maintained to take care of the normal changes in the paw thickness with age.
From day 23, mice were examined daily once for the signs of rheumatoid arthritis, using the articular index and paw thickness as parameters. Articular index scoring was performed employing the following criteria:
• 0: No redness or swelling • 1: Redness, but no swelling • 2: Redness and swelling of the paw • 3: Redness and severe swelling of the paw Hind limbs: Scale 0-4 • 0: No redness or swelling • 1: Redness and mild swelling of paw • 2: Redness and moderate swelling of paw and/or swelling of at least one of the digits • 3: Redness and moderate/severe swelling of paw, swelling of ankle joint and/or swelling of one or more digits • 4: Redness and severe swelling of paw, digits and ankle joint, with joint stiffness Mice with a minimum hind paw score of 2, of even one paw, were inducted into the study. Mice were randomized into the various study groups, each group having at least eight animals, and were administered the vehicle (0.5% CMC, 10 mL/kg p.o. and s.c. twice daily), the test compound (5 mg/kg, p.o. and s.c., twice daily) and standard compound Enbrel (Wyeth Limited, UK), 3 mg/kg, s.c., once daily. The test compound was administered as a suspension in CMC. The requisite quantity of the compound was accurately weighed and was hand-pulverized using pestle-mortar. After mixing with minimum quantity of Tween 80 necessary to wet the compound, requisite quantity of 0.5% CMC solution was added and the compound was ground with CMC till the uniform suspension was obtained. Standard compound ‘Enbrel’ was used as an aqueous solution. The dosing of the compounds was done for 12 continuous days.
The following parameters were observed and recorded daily, • 1. Body weight • 2. Articular index • 3. Paw thickness of hind limbs only, in mm using a tension free calipers • 4. Any significant observation regarding the condition of the animals.
On 13th day morning, 1 h after the compound treatment, the animals were sacrificed, blood withdrawn, and plasma collected for drug level analyses. Also, the hind limbs of all the animals were preserved for histopathological evaluations.

**Q.** What does the source list for `C/C=C/C(O)C(C)/C=C/C(=N\O)C(C)C(O)C(C)C1OC(=O)/C(OC)=C/C(C)=C/C(C)C(O)C(CC)C(O)C(C)C/C(C)=C/C=C/C1OC` (centres unmarked) [Compound of example 7, (3Z,5E,13E,15E)-18-((5Z,6E,10E)-3,9-Dihydroxy-5-(hydroxymino)-4,8-dimethyldodeca-6,10-dien-2-yl)-9-ethyl-8,10-dihydroxy-3,17-dimethoxy-5,7,11,13-tetramethyl oxacyclooctadeca-3,5,13,15-tetraen-2-one]?
**A.** inhibition of TNF-α production from monocytes (TNF-α): did not inhibit; severity of arthritis ([1]; 5.0 mg/kg CMC suspension, subcutaneously twice daily, 12 days): reduced the severity of arthritis; benefit compared with Enbrel ([1]; 5.0 mg/kg s.c. twice daily vs Enbrel 3 mg/kg, s.c., once daily): equal to that achieved with Enbrel treatment; arthritic changes of joints (histopathology observations) ([1]; 5 mg/kg, s.c.): showed protection against arthritic changes with absence of hyperplasia of synovium; Histological score of the section of paws ([1]; compound of example 7 5 mg/kg, s.c., n=10, Enbrel 3 mg/kg, s.c., n=6, vehicle control 15.14+1.0): 3.6+1.54
